Results from patent US20020098210A1, “FORMULATIONS AND METHODS FOR REDUCING SKIN IRRITATION” (priority 1997, published 2002).
Where two headings read alike, the source gives them in different places.

Assays:
[1] = test system: skin irritation induced by topical irritants (lactic acid, glycolic acid, capryloyl salicylic acid, benzoyl peroxide); test: Human clinical trials of anti-irritant activity (general statements); type: in vivo; details: topical application
Method: The objective of the clinical trials was to determine whether and to what extent topical formulations of the calcium cation reduced or prevented skin irritation caused by certain severe skin irritants, including particularly lactic acid and glycolic acid (which are hydroxy acids), capryloyl salicylic acid (a β-hydroxy acid ester) and capsaicin (an isolate from cayenne and paprika known for its skin-irritating properties). The trials were conducted in a double blind, randomized, vehicle-controlled manner. Various formulations of the invention were tested in over 460 people.

[2] = test system: lactic acid skin irritation; test: Lactic acid irritation trial, time zero test (anti-irritant applied simultaneously with irritant); type: in vivo, human; details: time zero tests; for Percent Inhibition (average inhibition of cumulative irritation): cation salt 250 mM, lactic acid irritant, average over trials; for Percent Inhibition: representative panels, 250 mM, vehicle 10% EtOH
Source text: (§1) The following scaled scores were used for sensory assessment: […]

[3] = test system: lactic acid skin irritation; test: Lactic acid irritation trial, pretreatment test (anti-irritant applied 15 minutes prior to irritant); type: in vivo, human; details: for Percent Inhibition (average inhibition of cumulative irritation) / Percent Inhibition: pretreatment tests; for Percent Inhibition (average inhibition of cumulative irritation): cation salt 250 mM, lactic acid irritant, average over trials; for Percent Inhibition: representative panels, 250 mM, vehicle Visible Difference; for inhibition of skin irritation (in words): salts in Elizabeth Arden Visible Difference Refining Toner, various amounts
Source text: as §1

[4] = test system: lactic acid skin irritation
Method: Tests were conducted in multiple panels of from 7 to 12 subjects each. Subjects were instructed not to wear any makeup or facial lotions to the clinic the day of testing. The subjects were instructed to wash their face with Ivory bar soap in the clinic prior to application of test solutions.
Lactic acid skin-irritant compositions were formulated in an appropriate vehicle prior to application to the skin of the subjects.
Controls were performed by applying corresponding formulation(s) (pretreatment and/or skin-irritant composition) with an equimolar amount of sodium chloride to a contralateral portion of the subject's skin. Typically, the test materials were applied to the face of the subject.
All test solutions (including controls) were applied in a double blind, randomized fashion using the prepared solutions as previously placed in coded vial designated for use on either the right or left side of the face (or other test area). Solutions were typically applied using a cotton swab (six strokes) or sponge applicator to the face and cheek area extending from the midline of the nose over to the center of the cheek and from the cheek bone down to the jaw line. Application was made first to the right side and then to the left.
Sensory assessment scores were recorded for each treated side of the subject's skin every minute for 15 minutes or until three consecutive scores of “zero” irritation were obtained. The following scaled scores were used for sensory assessment:
Symptom scores were cumulated, separately for the cation-treated and control-treated areas, for each individual and also for the panel as a whole. Individuals not reporting a cumulative score of at least “7” on at least one treatment area were excluded (in a blinded fashion) from further analysis in order to ascertain anti-irritant efficacy with respect to the more severely-susceptible test subjects. From a practical standpoint, scores of “0” and “1” on the above scale would be considered highly desirable for a commercial product because such a response would likely not result in a consumer ceasing to use a product.

Row | Compound | anti-irritant activity (in words) [1] | Percent Inhibition (average inhibition of cumulative irritation) [2] | Percent Inhibition [2] | Percent Inhibition (average inhibition of cumulative irritation) [3] | Percent Inhibition [3] | inhibition of skin irritation (in words) [3] | Percent Inhibition (cumulative irritation inhibition) ([4]; calcium nitrate 31 mM) | Percent Inhibition (cumulative irritation inhibition) ([4]; calcium nitrate 62 mM) | Percent Inhibition (cumulative irritation inhibition) ([4]; calcium nitrate 125 mM) | Percent Inhibition (cumulative irritation inhibition) ([4]; calcium nitrate 250 mM) | Percent Inhibition (cumulative irritation inhibition) ([4]; calcium nitrate 500 mM) | anti-irritant activity (in words) ([1]; listed as calcium(II) (Ca^2+))
1 | CC(=O)[O-].CC(=O)[O-].[Ca+2] [Calcium acetate] | particularly active as anti-irritants | 60% | 65% | 40% | 30% | effective to inhibit skin irritation | – | – | – | – | – | –
2 | [Ca+2].[Cl-].[Cl-] [Calcium chloride] | particularly active as anti-irritants | 65% | 61% | 35% | 35% | effective to inhibit skin irritation | – | – | – | – | – | –
3 | O=[N+]([O-])[O-].O=[N+]([O-])[O-].[Ca+2] [Calcium nitrate] | particularly active as anti-irritants | 90% | 85% | 45% | 44% | effective to inhibit skin irritation | 26% | 52% | 83% | 82% | 67% | –
4 | [Ca+2] [calcium cation, calcium(II)] | significant and reproducible anti-irritant effects | – | – | – | – | – | – | – | – | – | – | effective
5 | Calcium gluconate | particularly active as anti-irritants | 40% | 49% | – | 40% | – | – | – | – | – | – | –
